Experimental data taken from PubChem BioAssay AID316 (DTP/NCI, 2004).
Values joined by “and” are separate entries in the source; they are usually repeats but may differ in a detail not shown here. Equal entries are not always repeated. Inconclusive results and toxic doses are left out.

Test system: P1534 leukemia ip, CD2F1 mice, survival T/C
Assay: NCI In Vivo Anticancer Drug Screen. Data for tumor model P1534 Leukemia (intraperitoneal) in CD2F1 (CDF1) mice
Details: higher = longer survival
Procedure: The antitumor activity of compounds was measured in mice bearing transplantable tumors. Survival or tumor size were measured and the results are expressed as the measurement made in the treated group (T) divided by the measurement made in the vehicle treated control group (C). The tumor model used in this assay is P1534 Leukemia (intraperitoneal) in CD2F1 (CDF1) mice

[1] = endpoint: mean survival time, dose: 1.0 mg/kg/injection, schedule: Q01DX010 (ip), vehicle: saline
[2] = endpoint: mean survival time, dose: 2.0 mg/kg/injection, schedule: Q01DX010 (ip), vehicle: saline
[3] = endpoint: mean survival time, dose: 8.0 mg/kg/injection, schedule: Q01DX010 (ip), vehicle: saline
[4] = endpoint: mean survival time, dose: 25.0 mg/kg/injection, schedule: Q01DX010 (ip), vehicle: saline
[5] = endpoint: mean survival time, dose: 50.0 mg/kg/injection, schedule: Q01DX010 (ip), vehicle: saline
[6] = endpoint: mean survival time, dose: 20.0 mg/kg/injection, schedule: Q01DX010 (ip), vehicle: saline
[7] = endpoint: mean survival time, dose: 40.0 mg/kg/injection, schedule: Q01DX010 (ip), vehicle: saline

**Q.** Which results are given for `CC[C@H](CC[C@@H](C)[C@H]1CC[C@H]2[C@@H]3CC=C4C[C@@H](O)CC[C@]4(C)[C@H]3CC[C@]12C)C(C)C`?
**A.** T/C (endpoint: mean survival time, dose: 50.0 mg/kg/injection, schedule: Q01DX010 (ip), vehicle: other): 100 % of control; T/C (endpoint: mean survival time, dose: 100.0 mg/kg/injection, schedule: Q01DX010 (ip), vehicle: other): 100 % of control; T/C (endpoint: mean survival time, dose: 200.0 mg/kg/injection, schedule: Q01DX010 (ip), vehicle: other): 106 % of control; T/C (endpoint: mean survival time, dose: 300.0 mg/kg/injection, schedule: Q01DX010 (ip), vehicle: other): 108 % of control

**Q.** What does the source list for `C[C@]12CCC(=O)C=C1CC[C@@H]1[C@@H]2[C@@H](O)C[C@@]2(C)[C@H]1CC[C@]2(O)C(=O)CO`?
**A.** T/C (endpoint: mean survival time, dose: 10.0 mg/kg/injection, schedule: Q01DX005 (sc), vehicle: steriod suspending solution): 110 % of control (2×) and 118 % of control; T/C (endpoint: mean survival time, dose: 50.0 mg/kg/injection, schedule: Q01DX005 (sc), vehicle: steriod suspending solution): 104 % of control (2×) and 110 % of control; T/C (endpoint: mean survival time, dose: 100.0 mg/kg/injection, schedule: Q01DX005 (sc), vehicle: steriod suspending solution): 90 % of control and 95 % of control; T/C (endpoint: mean survival time, dose: 200.0 mg/kg/injection, schedule: Q01DX005 (sc), vehicle: steriod suspending solution): 87 % of control and 89 % of control; T/C (endpoint: mean survival time, dose: 250.0 mg/kg/injection, schedule: Q01DX005 (sc), vehicle: steriod suspending solution): 93 % of control

**Q.** Which T/C (endpoint: mean survival time, dose: 1.88 mg/kg/injection, schedule: Q01DX010 (ip), vehicle: saline) does the source give for `CC(=O)O[C@H]1C(=O)[C@@]2(C)[C@H]([C@H](OC(=O)c3ccccc3)[C@]3(O)C[C@H](OC(=O)[C@H](O)[C@@H](NC(=O)c4ccccc4)c4ccccc4)C(C)=C1C3(C)C)[C@]1(OC(C)=O)CO[C@@H]1C[C@@H]2O` here?
**A.** Its T/C is 300 % of control.

**Q.** What about the T/C (endpoint: mean survival time, dose: 3.75 mg/kg/injection, schedule: Q01DX010 (ip), vehicle: saline) of the same compound?
**A.** Its T/C is 300 % of control.

**Q.** What about the T/C (endpoint: mean survival time, dose: 7.5 mg/kg/injection, schedule: Q01DX010 (ip), vehicle: saline) of the same compound?
**A.** The T/C was 250 % of control.

**Q.** What about the T/C (endpoint: mean survival time, dose: 15.0 mg/kg/injection, schedule: Q01DX010 (ip), vehicle: saline) of the same compound?
**A.** The T/C was 89 % of control.

**Q.** What does the source list for `O=C(Nc1ccc(C2=NCCCN2)cc1)c1ccc(C(=O)Nc2ccc(C3=NCCCN3)cc2)cc1`?
**A.** T/C [1]: 109 % of control; T/C [2]: 113 % of control and 118 % of control; T/C [3]: 150 % of control

**Q.** With `O=C(NO)c1ccc([N+](=O)[O-])cc1` as the compound, how does the T/C (endpoint: mean survival time, dose: 270.0 mg/kg/injection, schedule: Q01DX010 (ip), vehicle: water) read?
**A.** The T/C was 108 % of control.

**Q.** What about the T/C (endpoint: mean survival time, dose: 400.0 mg/kg/injection, schedule: Q01DX010 (ip), vehicle: water) of the same compound?
**A.** The T/C was 112 % of control.

**Q.** Which results are given for `O=[n+]1c2c(n([O-])c3ccccc31)-c1cccc3cccc-2c13`?
**A.** T/C [4]: 92 % of control and 96 % of control; T/C [5]: 103 % of control and 92 % of control; T/C (endpoint: mean survival time, dose: 100.0 mg/kg/injection, schedule: Q01DX010 (ip), vehicle: saline): 92 % of control and 96 % of control; T/C (endpoint: mean survival time, dose: 200.0 mg/kg/injection, schedule: Q01DX010 (ip), vehicle: saline): 92 % of control

**Q.** What does the source list for `COc1cc(C[C@H]2c3cc(OC)c(OC)cc3CCN2C)c(Oc2cc3c(cc2OC)-c2c(OC)c(OC)cc4c2[C@H](C3)N(C)CC4)cc1OC`?
**A.** T/C [4]: 92 % of control; T/C [5]: 92 % of control

**Q.** Which T/C (endpoint: median survival time, dose: 0.5 mg/kg/injection, schedule: Q01DX009 (ip), vehicle: sodium bicarbonate) does the source give for `CN(Cc1cnc2nc(N)nc(N)c2n1)c1ccc(C(=O)N[C@@H](CCC(=O)O)C(=O)O)cc1` here?
**A.** Its T/C is 158 % of control.

**Q.** What about the T/C (endpoint: median survival time, dose: 1.0 mg/kg/injection, schedule: Q01DX009 (ip), vehicle: sodium bicarbonate) of the same compound?
**A.** The T/C was 198 % of control.

**Q.** `Nc1nc(F)nc2c1ncn2C1OC(CO)C(O)C1O` (stereo not given) was tested. Which T/C [1] did it give?
**A.** The T/C was 110 % of control and 100 % of control.

**Q.** And the T/C [2]?
**A.** Its T/C is 103 % of control.

**Q.** What about the T/C (endpoint: mean survival time, dose: 4.0 mg/kg/injection, schedule: Q01DX010 (ip), vehicle: saline) of the same compound?
**A.** Its T/C is 96 % of control.

**Q.** What about the T/C [3] of the same compound?
**A.** Its T/C is 92 % of control.

**Q.** What does the source list for `COc1c(OC2OC(CO)C(O)C(O)C2O)cc2c(c1OC)-c1ccc(OC)c(=O)cc1C(NC(C)=O)CC2` (stereo not given)?
**A.** T/C (endpoint: mean survival time, dose: 6.25 mg/kg/injection, schedule: Q01DX010 (ip), vehicle: saline): 107 % of control; T/C (endpoint: mean survival time, dose: 12.5 mg/kg/injection, schedule: Q01DX010 (ip), vehicle: saline): 107 % of control; T/C [4]: 107 % of control; T/C [5]: 107 % of control and 110 % of control

**Q.** How did the T/C [6] turn out when `CCN(CC)CCNc1ccc(C)c2sc3ccccc3c(=O)c12` was run?
**A.** The T/C was 103 % of control.

**Q.** What about the T/C [7] of the same compound?
**A.** Its T/C is 103 % of control.

**Q.** And the T/C (endpoint: mean survival time, dose: 80.0 mg/kg/injection, schedule: Q01DX010 (ip), vehicle: saline)?
**A.** The T/C was 107 % of control.

**Q.** Which results are given for `NNC(=O)c1cnccn1`?
**A.** T/C (endpoint: mean survival time, dose: 40.0 mg/kg/injection, schedule: Q01DX010 (ip), vehicle: water): 121 % of control; T/C (endpoint: mean survival time, dose: 80.0 mg/kg/injection, schedule: Q01DX010 (ip), vehicle: water): 110 % of control and 97 % of control

**Q.** Which T/C [6] does the source give for `OCC1OC(n2cnc3c(=S)nc[nH]c32)C(O)C1O` (stereo not given) here?
**A.** Its T/C is 111 % of control.

**Q.** What about the T/C [7] of the same compound?
**A.** Its T/C is 111 % of control and 122 % of control.

**Q.** Which T/C (endpoint: mean survival time, dose: 0.13 mg/kg/injection, schedule: Q01DX010 (ip), vehicle: saline) does the source give for `C=C1c2[nH]c3ccccc3c2CN2CCC1/C(=C/C)C2` (stereo not given) here?
**A.** The T/C was 96 % of control.

**Q.** What about the T/C (endpoint: mean survival time, dose: 0.25 mg/kg/injection, schedule: Q01DX010 (ip), vehicle: saline) of the same compound?
**A.** Its T/C is 93 % of control.

**Q.** What about the T/C (endpoint: mean survival time, dose: 0.5 mg/kg/injection, schedule: Q01DX010 (ip), vehicle: saline) of the same compound?
**A.** Its T/C is 96 % of control.

**Q.** What about the T/C [1] of the same compound?
**A.** The T/C was 100 % of control.
